Source: patent US6562862B1, “Methods of inhibiting physiological conditions associated with an excess of neuropeptide Y” (Eli Lilly and Company, priority 1994, dated 2003)

Biological target: T1, Y1 (Homo sapiens, UniProt P25929)
T1 construct: In this assay the cell line SK-N-MC was employed; endogenous in cells; host or cells: SK-N-MC cells (homogenate of scraped, pelleted cells), received from Sloane-Kettering Memorial Hospital
T1 sequence (P25929 1-384): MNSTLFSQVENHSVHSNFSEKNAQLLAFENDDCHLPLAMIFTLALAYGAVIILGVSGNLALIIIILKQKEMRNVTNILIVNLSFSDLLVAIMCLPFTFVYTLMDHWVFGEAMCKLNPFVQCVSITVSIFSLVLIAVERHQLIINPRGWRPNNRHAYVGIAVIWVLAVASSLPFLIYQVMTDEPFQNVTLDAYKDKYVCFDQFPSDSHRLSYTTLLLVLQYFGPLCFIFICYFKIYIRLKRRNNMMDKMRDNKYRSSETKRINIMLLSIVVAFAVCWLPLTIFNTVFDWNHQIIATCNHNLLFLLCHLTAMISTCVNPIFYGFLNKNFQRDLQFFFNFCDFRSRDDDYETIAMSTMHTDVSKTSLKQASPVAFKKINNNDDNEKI
Experiment: Neuropeptide Y Binding Assay (125I-peptide YY, SK-N-MC cell homogenate)
Settings: displacement of 0.1 nM 125I-peptide YY, SK-N-MC cells, about two hours at room temperature
Method: The biological activity of the compounds of the present invention was evaluated employing an initial screening assay which rapidly and accurately measured the binding of the tested compound to known neuropeptide Y receptor sites. Assays useful for evaluating neuropeptide Y receptor antagonists are well known in the art. See, e.g., U.S. Pat. No. 5,284,839, issued Feb. 8, 1994, which is herein incorporated by reference. See also, M. W. Walker, et al., Journal of Neurosciences, 8:2438-2446 (1988).
Neuropeptide Y Binding Assay
The ability of the compounds of the instant invention were assessed as to their ability to bind to neuropeptide Y using a protocol essentially as described in M. W. Walker, et al., supra. In this assay the cell line SK-N-MC was employed. This cell line was received from Sloane-Kettering Memorial Hospital, New York. These cells were cultured in T-150 flasks using Dulbecco's Minimal Essential Media (DMEM) supplemented with 5% fetal calf serum. The cells were manually removed from the flasks by scraping, pelleted, and stored at −70° C.
The pellets were resuspended using a glass homogenizer in 25 mM HEPES (pH 7.4) buffer containing 2.5 mM calcium chloride, 1 mM magnesium chloride, and 2 mg/L bacitracin. Incubations were performed in a final volume of 200 μl containing 0.1 nM ^125I-peptide YY (2200 Ci/mmol) and 0.2-0.4 mg protein for about two hours at room temperature.
Nonspecific binding was defined as the amount of radioactivity remaining bound to the tissue after incubating in the presence of 1 μM neuropeptide Y. In some experiments various concentrations of compounds were included in the incubation mixture.
Incubations were terminated by rapid filtration through glass fiber filters which had been presoaked in 0.3% polyethyleneimine using a 96-well harvester. The filters were washed with 5 ml of 50 mM Tris (pH 7.4) at 4° C. and rapidly dried at 60° C. The filters were then treated with melt-on scintillation sheets and the radioactivity retained on the filters were counted. The results were analyzed using various software packages. Protein concentrations were measured using standard coumassie protein assay reagents using bovine serum albumin as standards.

Structure (SMILES)	IC50
O=C(c1ccc(OCCN2CCCCCC2)cc1)c1c(-c2ccc(O)cc2)sc2cc(O)ccc12 [R1=H, R2=1-hexamethylenimino, R3=H]	~20 µM
O=C(c1ccc(OCCN2CCCC2)cc1)c1c(-c2ccc(O)cc2)sc2cc(O)ccc12 [R1=H, R2=1-pyrrolidine, R3=H]	~17 µM
COc1ccc2c(C(=O)c3ccc(OCCN4CCCCC4)cc3)c(-c3ccc(O)cc3)sc2c1 [R1=CH3, R2=1-piperidine, R3=H]	~12 µM
O=C(c1ccc(OCCN2CCCC2)cc1)c1c(-c2ccc(O)cc2)sc2cc(O)ccc12	~10 µM
